According to patent US8871681B2, “Herbicidal compositions comprising 4-amino-3-chloro-5-fluoro-6-(4-chloro-2-fluoro-3-methoxyphenyl) pyridine-2-carboxylic acid or a derivative thereof and certain sulfonylureas” (Dow AgroSciences LLC, priority 2012, dated 2014):
Where “and” joins values, the source holds several entries; their conditions need not be identical. Equal entries are not always repeated. Where two headings read alike, the source gives them in different places.

Legend:
Assay in all cases: Postemergence foliar-applied weed control, direct seeded rice, greenhouse (Example I)
[1] = tested on: LEFCH (Leptochloa chinensis, Chinese sprangletop); format: in vivo, Leptochloa chinensis (L.) Nees; settings: for pest or weed control at 8.75 g/ha: 8.75 gae/ha; for pest or weed control at 17.5 g/ha: 17.5 gae/ha
Method in brief: (§1)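 Greenhouse-grown plants in loam/sandy loam–grit soil (14 h photoperiod, ~29/26 °C) were sprayed postemergence at the first to fourth true leaf stage. Compound A (acid equivalent basis) and ALS-inhibiting sulfonylureas (active ingredient basis) were applied alone and in combination in 1.25% (v/v) crop oil concentrate at 187 L/ha by track sprayer; controls received solvent blank.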

[2] = tested on: ECHCG (Echinochloa crusgalli, barnyardgrass); format: in vivo, Echinochloa crusgalli (L.) Beauv.; settings: 21 DAA; 4.38 gae/ha
Source text: Seeds or nutlets of the desired test plant species were planted in a soil matrix prepared by mixing a loam or sandy loam soil (e.g., 28.6 percent silt, 18.8 percent clay, and 52.6 percent sand, with a pH of about 5.8 and an organic matter content of about 1.8 percent) and calcareous grit in an 80 to 20 ratio. The soil matrix was contained in plastic pots with a volume of 1 quart and a surface area of 83.6 square centimeters (cm^2). When required to ensure good germination and healthy plants, a fungicide treatment and/or other chemical or physical treatment was applied. The plants were grown for 8-22 days in a greenhouse with an approximate 14 h photoperiod which was maintained at about 29° C. during the day and 26° C. during the night. Nutrients (Peters Excel® 15-5-15 5-Ca 2-Mg and iron chelate) were applied in the irrigation solution as needed and water was added on a regular basis. Supplemental lighting was provided with overhead metal halide 1000-Watt lamps as necessary. The plants were employed for testing when they reached the first through fourth true leaf stage.
Treatments consisted of the acid or esters of 4-amino-3-chloro-5-fluoro-6-(4-chloro-2-fluoro-3-methoxy-phenyl)pyridine-2-carboxylic acid (Compound A), each formulated as an SC, and various herbicidal components alone and in combination. Forms of compound A were applied on an acid equivalent basis.
Other herbicidal components were applied on an active ingredient basis and included acetolactate synthase (ALS)-inhibiting herbicides (sulfonylurea chemical class) azimsulfuron formulated as Gulliver®, bensulfuron-methyl formulated as Londax® 60DF, cyclosulfamuron (technical material), ethoxysulfuron formulated as Sunrice® 15 WDG, flazasulfuron formulated as Katana®, flucetosulfuron formulated as Sukedachi® 1KG G, foramsulfuron formulated as Option®, imazosulfuron formulated as Brazzos® WG, iodosulfuron-methyl-sodium formulated as Hussar®, metsulfuron-methyl formulated as Lorate®, nicosulfuron formulated as Accent®, orthosulfamuron formulated as Strada® WG, primisulfuron-methyl (technical material), propyrisulfuron formulated as Zeta One®, rimsulfuron formulated as Matrix® WG, sulfometuron-methyl formulated as Oust®, and trifloxysulfuron-sodium formulated as Monument® 75WG.
Treatment requirements were calculated based upon the rates being tested, the concentration of active ingredient or acid equivalent in the formulation, and a 12 mL application volume at a rate of 187 L/ha.
For treatments comprised of formulated compounds, measured amounts of compounds were placed individually in 25 mL glass vials and diluted in a volume of 1.25% (v/v) Agri-Dex® crop oil concentrated to obtain 12× stock solutions. […] Application solutions were prepared by adding an appropriate amount of each stock solution (e.g., 1 mL) and diluted to the appropriate final concentrations with the addition of 10 mL of an aqueous mixture of 1.25% (v/v) crop oil concentrate so that the final spray solutions contained 1.25+/−0.05% (v/v) Agrcrop oil concentrate.
For treatments comprised of formulated and technical compounds, weighed amounts of the technical materials were placed individually in 25 mL glass vials and dissolved in a volume of 97:3 v/v acetone/DMSO to obtain 12× stock solutions, and measured amounts of the formulated compounds were placed individually in 25 mL glass vials and diluted in a volume of 1.25% (v/v) crop oil concentrate to obtain 12× stock solutions. […] Application solutions were prepared by adding an appropriate amount of each stock solution (e.g., 1 mL) and diluted to the appropriate final concentrations with the addition of an appropriate amount of an aqueous mixture of 1.5% (v/v) crop oil concentrate so that the final spray solutions contained 1.25% (v/v) crop oil concentrate. […]

[3] = tested on: CYPIR (Cyperus iria, rice flatsedge); format: in vivo, Cyperus iria L.
Method in brief: as §1

[4] = tested on: BRAPP (Brachiaria platyphylla, broadleaf signalgrass); format: in vivo, Brachiaria platyphylla (Griseb.) Nash; settings: Urochloa platyphylla, post-emergence; for pest or weed control at 4.38 g/ha: 4.38 gae/ha; for pest or weed control at 8.75 g/ha: 8.75 gae/ha; for pest or weed control at 17.5 g/ha: 17.5 gae/ha
Method in brief: as §1

[5] = Dinebra chinensis, post-emergence, 480 h, read-out: Visual Weed Control (%) Obs, 20 DAA
[6] = Dinebra chinensis, post-emergence, 576 h, read-out: Visual Weed Control (%) Obs, 24 DAA
[7] = 480 h, read-out: Visual Weed Control (%) Obs, 20 DAA
[8] = 504 h, read-out: Visual Weed Control (%) Obs, 21 DAA
[9] = 504 h, read-out: Visual Weed Control (%) Obs, 21 DAA, second series

COc1c(Cl)ccc(-c2nc(C(=O)OCc3ccccc3)c(Cl)c(N)c2F)c1F [Compound A Benzyl Ester]
Visual Weed Control Obs ([1]; 22 DAA, 8 gae/ha): 0%
pest or weed control at 8.75 g/ha [1, 5]: 20%
pest or weed control at 17.5 g/ha [1, 5]: 40%
pest or weed control at 4.38 g/ha ([1]; Dinebra chinensis, post-emergence, 504 h, read-out: Visual Weed Control (%) Obs, 21 DAA, 4.38 gae/ha): 0%
pest or weed control at 8 g/ha ([1]; Dinebra chinensis, post-emergence, 504 h, read-out: Visual Weed Control (%) Obs, 21 DAA, 8 gae/ha): 20%
pest or weed control at 8 g/ha ([1]; Dinebra chinensis, post-emergence, 528 h, read-out: Visual Weed Control (%) Obs, 22 DAA, 8 gae/ha): 0%
pest or weed control at 16 g/ha ([1]; Dinebra chinensis, post-emergence, 528 h, read-out: Visual Weed Control (%) Obs, 22 DAA, 16 gae/ha): 20%
pest or weed control at 32 g/ha ([1]; Dinebra chinensis, post-emergence, 528 h, read-out: Visual Weed Control (%) Obs, 22 DAA, 32 gae/ha): 15%
pest or weed control at 8.75 g/ha [1, 6]: 0%
pest or weed control at 17.5 g/ha [1, 6]: 10%
Visual Weed Control (%) Obs [2]: 10%
Visual Weed Control (%) Obs ([3]; 20 DAA, 4.38 gae/ha): 15%
Visual Weed Control (%) Obs ([3]; 20 DAA, 8.75 gae/ha): 60%
Visual Weed Control (%) Obs ([3]; 20 DAA, 17.5 gae/ha): 90%
Visual Weed Control (%) Obs ([3]; 21 DAA, 4.38 gae/ha): 50%
Visual Weed Control (%) Obs ([3]; 22 DAA, 16 gae/ha): 60% and 80%
pest or weed control at 4.38 g/ha [4, 7]: 60%
pest or weed control at 8.75 g/ha [4, 7]: 75%
pest or weed control at 17.5 g/ha [4, 7]: 85%
pest or weed control at 4.38 g/ha [4, 8]: 50%
pest or weed control at 4.38 g/ha [4, 9]: 50%
pest or weed control at 8.75 g/ha [4, 8]: 70%
pest or weed control at 8.75 g/ha [4, 9]: 80%
pest or weed control at 17.5 g/ha [4, 8]: 80%
pest or weed control at 8 g/ha ([4]; 528 h, read-out: Visual Weed Control (%) Obs, 22 DAA, 8 gae/ha): 50%
pest or weed control at 16 g/ha ([4]; 528 h, read-out: Visual Weed Control (%) Obs, 22 DAA, 16 gae/ha): 90%
pest or weed control at 32 g/ha ([4]; 528 h, read-out: Visual Weed Control (%) Obs, 22 DAA, 32 gae/ha): 85%
